Experimental data from patent publication USRE34480E, “Naphthalocyanine compounds” (Yamamoto Kagaku Gosei Co., Ltd., priority 1983, dated 1993).
Where two headings read alike, the source gives them in different places.

Experiments:
[1] = Solubility in toluene; assay type: physicochemical; conditions: for Solubility in Toluene: 1 g in 5 ml toluene, ultrasonic shaking 50° C. 10 min, then room temperature 30 min, filtered; for residue (solubility measurement in toluene): residue behind the printed solubility
Description: In a 20 ml test tube were placed 1 g of a naphthalocyanine compound and 5 ml of toluene. After the tube was tightly stoppered, the content was subjected to ultrasonic shaking at 50° C. for 10 min. Then, the tube was allowed to stand at room temperature for 30 min. and the content was filtered. The filtrate was concentrated to dryness. The solubility of the naphthalocyanine in toluene was calculated using the following equation. [formula] R1, R2, and R3 and R4 of naphthalocyanine compounds of the present invention can bond to 6 to 7 positions of all naphthalene nuclei of naphthalocyanine. Each of these groups can be a mixed group.

[2] = Near infrared absorption spectrum in toluene (largest absorption peak, absorptivity coefficient); assay type: physicochemical
Source text: It is to be noted that the naphthalocyanine compounds according to the present invention are not restricted to the compounds shown in Table 2.
Near infrared absorption spectrum for toluene solution: […]

| Substance | Solubility in Toluene [1] [%] | Absorptivity coefficient (log ε) [2] | Wavelength at largest absorption peak [2] [nm] | Absorptivity coefficient (log ε) ([2]; listed as tert-amyl Cu) | residue (solubility measurement in toluene) [1] [g] | Solubility in organic solvents (in words) ([1]; organic solvents, compared with tert-butyl analogue or in general) |
| --- | --- | --- | --- | --- | --- | --- |
| tetra-tert-heptylvanadylnaphthalocyanine [Example 5] | 11 | 5.27 | 809 | – | – | – |
| Indium tetra-tert, sec-mixed amylnaphthalocyanine [Example 4] | 7 | 5.09 | 805 | – | – | – |
| copper tetra-tert-amylnaphthalocyanine [Example 2] | 7 | – | 771 | 5.24 | – | – |
| tetra-tert-amylvanadylnaphthalocyanine [Example 1] | 6 | 5.37 | 808 | – | 0.6 | – |
| tetra-tert, sec-mixed amylvanadylnaphthalocyanine [Example 3] | 7 | 5.32 | 809 | – | 0.6 | – |
| tetra-6-tert-butylvanadylnaphthalocyanine [reference compound] | 2 | – | – | – | – | much lower solubility in organic solvents |
